In ChEMBL document CHEMBL1955725, “Structure-guided lead optimization of triazolopyrimidine-ring substituents identifies potent Plasmodium falciparum dihydroorotate dehydrogenase inhibitors with clinical candidate potential” (J Med Chem, 2011):
≈ marks a conversion by molar mass, not a printed value.

Tests used:
[1] = AUC (0 to infinity) in Sprague-Dawley rat at 46.7 mg/kg, po; format: ADME, organism-based; design: time infinity, dose 46.7 mg/kg, route oral; conditions: plasma
[2] = AUC (0 to infinity) in Sprague-Dawley rat at 18.8 mg/kg, po; format: ADME, organism-based; design: time infinity, dose 18.8 mg/kg, route oral; conditions: plasma
[3] = Volume of distribution in Sprague-Dawley rat at 0.9 mg/kg, iv; format: ADME, organism-based; design: dose 0.9 mg/kg, route intravenous; conditions: in vivo
in vivo [4] = conditions: NOD-SCID IL-2Rgamma-null, mouse, po, 7 mg/kg
[5] = Terminal elimination half life in Sprague-Dawley rat at 18.8 mg/kg, po; format: ADME, organism-based; design: dose 18.8 mg/kg, route oral; conditions: in vivo, read-out: beta t1/2 (converted)
[6] = Terminal elimination half life in Sprague-Dawley rat at 2.6 mg/kg, iv; format: ADME, organism-based; design: dose 2.6 mg/kg, route intravenous; conditions: in vivo, read-out: beta t1/2 (converted)
[7] = Cmax in Sprague-Dawley rat at 2.1 mg/kg, po; format: ADME, organism-based; design: dose 2.1 mg/kg, route oral; conditions: in vivo
Mus musculus [8] = assay: Time plasma concentration remained above 1 uM in Swiss outbred mouse plasma at 0.4 mg/kg, po; format: ADME, organism-based; design: dose 0.4 mg/kg, route oral; conditions: in vivo
[9] = Plasma protein binding in Sprague-Dawley rat at 2.1 to 46.7 mg/kg, po; format: ADME, organism-based; design: dose 2.1-46.7 mg/kg, route oral; conditions: read-out: PPB (converted)
[10] = Oral bioavailability in Sprague-Dawley rat at 46.7 mg/kg; format: ADME, organism-based; conditions: in vivo
[11] = Cmax in human RBC engrafted NOD-SCID IL-2Rgamma-null mouse infected with Plasmodium falciparum 3D7 0087/N9 at 7 mg/kg, po; format: ADME, organism-based; design: dose 7 mg/kg, route oral; conditions: in vivo
[12] = Terminal elimination half life in Swiss outbred mouse at 10 mg/kg, po; format: ADME, organism-based; design: dose 10 mg/kg, route oral; conditions: in vivo, read-out: beta t1/2 (converted)
in vivo [13] = conditions: Sprague-Dawley, rat, po, 18.8 mg/kg
[14] = Oral bioavailability in Sprague-Dawley rat at 2.1 mg/kg; format: ADME, organism-based; conditions: in vivo
[15] = AUC (0 to infinity) in Sprague-Dawley rat at 2.1 mg/kg, po; format: ADME, organism-based; design: time infinity, dose 2.1 mg/kg, route oral; conditions: plasma
Plasmodium falciparum [16] = assay: Antimalarial activity against drug-sensitive Plasmodium falciparum D6 by [3H]hypoxanthine incorporation assay in presence of human serum; format: functional, organism-based
[17] = AUC (0 to infinity) in Swiss outbred mouse plasma at 0.4 mg/kg, po; format: ADME, organism-based; design: time infinity, dose 0.4 mg/kg, route oral
[18] = Cmax in Swiss outbred mouse at 2 mg/kg, po; format: ADME, organism-based; design: dose 2 mg/kg, route oral; conditions: in vivo
[19] = AUC (0 to infinity) in Swiss outbred mouse plasma at 2 mg/kg, po; format: ADME, organism-based; design: time infinity, dose 2 mg/kg, route oral
[20] = Terminal elimination half life in Sprague-Dawley rat at 46.7 mg/kg, po; format: ADME, organism-based; design: dose 46.7 mg/kg, route oral; conditions: in vivo, read-out: beta t1/2 (converted)
[21] = Volume of distribution in Sprague-Dawley rat at 2.6 mg/kg, iv; format: ADME, organism-based; design: dose 2.6 mg/kg, route intravenous; conditions: in vivo
[22] = Terminal elimination half life in Swiss outbred mouse at 0.4 mg/kg, po; format: ADME, organism-based; design: dose 0.4 mg/kg, route oral; conditions: in vivo, read-out: beta t1/2 (converted)
Mus musculus [23] = assay: AUC (0 to 24 hrs) in human RBC engrafted NOD-SCID IL-2Rgamma-null mouse at 7 mg/kg, po; format: ADME, organism-based, Plasma; design: time < 24 hr, dose 7 mg/kg, route oral; conditions: in vivo
Liver microsomes = assay: Intrinsic clearance in human liver microsomes; format: ADME, Microsome
[24] = AUC (0 to infinity) in Swiss outbred mouse plasma at 10 mg/kg, po; format: ADME, organism-based; design: time infinity, dose 10 mg/kg, route oral
Plasmodium falciparum [25] = assay: Antimalarial activity against Plasmodium falciparum 3D7 by [3H]hypoxanthine incorporation assay in presence of human serum; format: functional, organism-based
in vivo [26] = conditions: Sprague-Dawley, rat, po, 46.7 mg/kg
[27] = Terminal elimination half life in Sprague-Dawley rat at 0.9 mg/kg, iv; format: ADME, organism-based; design: dose 0.9 mg/kg, route intravenous; conditions: in vivo, read-out: beta t1/2 (converted)
[28] = Cmax in Sprague-Dawley rat at 46.7 mg/kg, po; format: ADME, organism-based; design: dose 46.7 mg/kg, route oral; conditions: in vivo
Plasmodium falciparum [29] = assay: Antimalarial activity against atovoquone-resistant Plasmodium falciparum TM90C2B by [3H]hypoxanthine incorporation assay in presence of human serum; format: functional, organism-based
[30] = Cmax in Swiss outbred mouse at 0.4 mg/kg, po; format: ADME, organism-based; design: dose 0.4 mg/kg, route oral; conditions: in vivo
Plasmodium falciparum [31] = assay: Antimalarial activity against Plasmodium falciparum 3D7 by [3H]hypoxanthine incorporation assay in presence of albumax; format: functional, organism-based
Plasmodium falciparum [32] = assay: Antimalarial activity against Plasmodium falciparum D10 transfected with yeast DHODH by [3H]hypoxanthine incorporation assay; format: functional, organism-based
[33] = Plasma protein binding in Swiss outbred mouse by ultracentrifugation; conditions: read-out: PPB (converted)
Plasmodium falciparum [34] = assay: Antimalarial activity against Plasmodium falciparum 3D7 0087/N9 infected in human RBC engrafted NOD-SCID IL-2Rgamma-null mouse assessed as reduction in parasitemia administered orally 3 days post infection qd for 4 days measured 24 hrs after final dose by FACS analysis; format: functional; conditions: 3D7 0087/N9, po
in vivo [35] = conditions: Swiss outbred, mouse, po, 2 mg/kg
Plasma = assay: Plasma protein binding in human by chromatographic method; format: ADME, cell-free
HepG2 = assay: Cytotoxicity against human HepG2 cells; format: cell-based
[36] = Cmax in Swiss outbred mouse at 50 mg/kg, po; format: ADME, organism-based; design: dose 50 mg/kg, route oral; conditions: in vivo
Plasmodium falciparum [37] = assay: Antimalarial activity against chloroquine and pyrimethamine-resistant Plasmodium falciparum K1 by [3H]hypoxanthine incorporation assay in presence of human serum; format: functional, organism-based
[38] = Cmax in Sprague-Dawley rat at 18.8 mg/kg, po; format: ADME, organism-based; design: dose 18.8 mg/kg, route oral; conditions: in vivo
[39] = Aqueous solubility of the compound at pH 6.5; format: physicochemical
Mus musculus [40] = assay: Time plasma concentration remained above 1 uM in Swiss outbred mouse plasma at 10 mg/kg, po; format: ADME, organism-based; design: dose 10 mg/kg, route oral; conditions: in vivo
[41] = Terminal elimination half life in Swiss outbred mouse at 2 mg/kg, po; format: ADME, organism-based; design: dose 2 mg/kg, route oral; conditions: in vivo, read-out: beta t1/2 (converted)
[42] = Clearance in Sprague-Dawley rat at 2.6 mg/kg, iv; format: ADME, organism-based; design: dose 2.6 mg/kg, route intravenous; conditions: in vivo
Plasmodium falciparum [43] = assay: Antimalarial activity against drug-sensitive Plasmodium falciparum HB3 by [3H]hypoxanthine incorporation assay in presence of human serum; format: functional, organism-based
[44] = Terminal elimination half life in Swiss outbred mouse at 50 mg/kg, po; format: ADME, organism-based; design: dose 50 mg/kg, route oral; conditions: in vivo, read-out: beta t1/2 (converted)
in vivo [45] = conditions: NOD-SCID IL-2Rgamma-null, mouse, po, 7 mg/kg; remark: listed apart in the source
[46] = Cmax in Swiss outbred mouse at 10 mg/kg, po; format: ADME, organism-based; design: dose 10 mg/kg, route oral; conditions: in vivo
in vivo [47] = conditions: Swiss outbred, mouse, po, 10 mg/kg
Plasmodium falciparum [48] = assay: Antimalarial activity against […] Plasmodium falciparum TM90C2A by [3H]hypoxanthine incorporation assay in presence of human serum; format: functional, organism-based
[49] = Oral bioavailability in Sprague-Dawley rat at 18.8 mg/kg; format: ADME, organism-based; conditions: in vivo
Mus musculus [50] = assay: Time plasma concentration remained above 1 uM in Swiss outbred mouse plasma at 2 mg/kg, po; format: ADME, organism-based; design: dose 2 mg/kg, route oral; conditions: in vivo
in vivo [51] = conditions: Swiss outbred, mouse, po, 0.4 mg/kg
[52] = AUC (0 to infinity) in Swiss outbred mouse plasma at 50 mg/kg, po; format: ADME, organism-based; design: time infinity, dose 50 mg/kg, route oral
L1210 = assay: Cytotoxicity against mouse L1210 cells; format: cell-based
in vivo [53] = conditions: Swiss outbred, mouse, po, 50 mg/kg
[54] = Terminal elimination half life in Sprague-Dawley rat at 2.1 mg/kg, po; format: ADME, organism-based; design: dose 2.1 mg/kg, route oral; conditions: in vivo, read-out: beta t1/2 (converted)
Plasmodium falciparum [55] = assay: Antimalarial activity against chloroquine-resistant Plasmodium falciparum Dd2 by [3H]hypoxanthine incorporation assay in presence of human serum; format: functional, organism-based
Plasmodium falciparum [56] = assay: Antimalarial activity against Plasmodium falciparum D10 by [3H]hypoxanthine incorporation assay; format: functional, organism-based
[57] = Cmax in human RBC engrafted NOD-SCID IL-2Rgamma-null mouse at 7 mg/kg, po; format: ADME, organism-based; design: dose 7 mg/kg, route oral; conditions: in vivo
in vivo [58] = conditions: Sprague-Dawley, rat, po, 2.1 mg/kg

Cc1cc(Nc2ccc(S(F)(F)(F)(F)F)cc2)n2nc(C(C)(F)F)nc2n1 [DSM-265]
AUC(0-inf) [1]: 322 µM·h
AUC(0-inf) [2]: 122 µM·h
Vd [3]: 2.9 L/kg
Tmax (in vivo [4]): 6.7 h
half-life [5]: 15.5 h
half-life [6]: 12.6 h
Cmax [7]: 0.75 µM
Time (Mus musculus [8]): 0 h
fraction unbound [9]: 0.027
bioavailability [10]: 61%
Cmax [11]: 5.3 µM
half-life [12]: 2.5 h
Tmax (in vivo [13]): 7 h
bioavailability [14]: 66%
AUC(0-inf) [15]: 15.5 µM·h
EC50 (Plasmodium falciparum [16]): 22 nM
AUC(0-inf) [17]: 0.45 µM·h
Cmax [18]: 0.44 µM
AUC(0-inf) [19]: 2.72 µM·h
half-life [20]: 27.9 h
Vd [21]: 5.9 L/kg
half-life [22]: 4.1 h
AUC (Mus musculus [23]): 3469 µM·min
Intrinsic clearance (Liver microsomes): < 5 µL/min/mg
AUC(0-inf) [24]: 22.6 µM·h
EC50 (Plasmodium falciparum [25]): 46 nM
Tmax (in vivo [26]): 17 h
half-life [27]: 10.1 h
Cmax [28]: 6.4 µM
EC50 (Plasmodium falciparum [29]): 15 nM
Cmax [30]: 0.06 µM
EC50 (Plasmodium falciparum [31]): 7.8 nM
EC50 (Plasmodium falciparum [32]): > 20000 nM
fraction unbound [33]: 0.004
ED50 (Plasmodium falciparum [34]): 2.8 mg/kg
ED90 (Plasmodium falciparum [34]): 8.1 mg/kg
Tmax (in vivo [35]): 1 h
PPB (Plasma): 97.4%
EC50 (HepG2): > 50000 nM
Cmax [36]: 9.53 µM
EC50 (Plasmodium falciparum [37]): 57 nM
Cmax [38]: 3.9 µM
solubility [39]: 30 µM (≈ 12.5 µg/mL)
Time (Mus musculus [40]): 8 h
half-life [41]: 3.5 h
clearance [42]: 6 mL/min/kg
EC50 (Plasmodium falciparum [43]): 27 nM
half-life [44]: 3.2 h
Tmax (in vivo [45]): 4 h
Cmax [46]: 3.1 µM
Tmax (in vivo [47]): 1.5 h
EC50 (Plasmodium falciparum [48]): 31 nM
bioavailability [49]: 57%
Time (Mus musculus [50]): 0 h
Tmax (in vivo [51]): 0.5 h
AUC(0-inf) [52]: 33.8 µM·h
EC50 (L1210): > 50000 nM
Tmax (in vivo [53]): 2 h
half-life [54]: 11.6 h
EC50 (Plasmodium falciparum [55]): 57 nM
EC50 (Plasmodium falciparum [56]): 86 nM
Cmax [57]: 6.1 µM
Tmax (in vivo [58]): 3.25 h
